Experimental data reported in patent publication US10138240B2, “Crystal of 5-hydroxy-4-(trifluoromethyl)pyrazolopyridine derivative” (Daiichi Sankyo Company, Limited, priority 2015, dated 2018).

Legend:
LCAT = LCAT (Homo sapiens (Human), UniProt P04180); experiment: LCAT activity measurement (in vitro), HDL3 fraction from human plasma as enzyme source and acceptor; assay type: biochemical; details: HDL3 1 mg/mL from plasma of a healthy person, [14C]cholesterol, 37° C., approximately 16 hours; read-out: EC50 of LCAT activation
Description: A fraction composed of HDL3 (1.125<specific gravity <1.210 g/mL) was obtained from the plasma of a healthy person by density gradient centrifugation. The obtained fraction was dialyzed against phosphate-buffered saline (pH 7.4) and used as an enzyme source and an acceptor for LCAT. Each test drug was prepared by dissolution in dimethyl sulfoxide. [^14C]Cholesterol containing DTNB (Ellman's reagent, final concentration: 0.5 mM), mercaptoethanol (final concentration: 12.5 mM), and 0.6% bovine serum albumin was added to phosphate-buffered saline (pH 7.4) containing 1 mg/mL HDL3, and the test drug was further added thereto at varying concentrations to adjust the whole amount to 80 μL. This mixture was incubated at 37° C. for approximately 16 hours. Then, a mixed solution of hexane and isopropanol (mixing ratio=3:2) was added thereto to stop the reaction. After stirring, the hexane layer was collected, and this layer was evaporated to dryness. […] The radioactivity of a portion corresponding to cholesterol oleate was measured using an imaging analyzer BAS-2500 (manufactured by Fujifilm Corp.). […] The EC50 value of LCAT activation was calculated according to the expression given below relative to the LCAT activity in the sample non-supplemented with the test drug. […]

cynomolgus monkey = experiment: Drug efficacy test in cynomolgus monkeys (plasma HDL cholesterol); assay type: in vivo; details: oral, single dose of 10 mg/kg, from AUC before administration and 24 hours after administration
Description: Each test drug was dissolved in a propylene glycol (Sigma-Aldrich Corp.)-Tween 80 (Sigma-Aldrich Corp.) mixed solution [4/1 (v/v)] or a 0.5% (w/v) methylcellulose aqueous solution, and the solution was orally administered to a cynomolgus monkey for 1 or 7 days. At 1 or 7 day of administration period, blood was collected before administration and after administration, and plasma was obtained. The content of cholesterol in the plasma was measured using a commercially available assay kit (Cholesterol-E Wako, Wako Pure Chemical Industries, Ltd.). The lipoprotein profile was analyzed by HPLC (column: LipopropakXL, manufactured by Tosoh Corp.). The contents of HDL cholesterol and non-HDL cholesterol were calculated according to the following calculation expression: Content of HDL cholesterol=Content of cholesterol in the plasma×(Peak area of HDL cholesterol/Total sum of peaks) Content of non-HDL cholesterol=Content of cholesterol in the plasma×(Peak area of non-HDL cholesterol/Total sum of peaks)
The rate (%) of increase in HDL level after the administration of a single dose of 10 mg/kg compared with before administration was determined from the AUC before administration and 24 hours after administration.

LCAT, sequence (P04180 25-440): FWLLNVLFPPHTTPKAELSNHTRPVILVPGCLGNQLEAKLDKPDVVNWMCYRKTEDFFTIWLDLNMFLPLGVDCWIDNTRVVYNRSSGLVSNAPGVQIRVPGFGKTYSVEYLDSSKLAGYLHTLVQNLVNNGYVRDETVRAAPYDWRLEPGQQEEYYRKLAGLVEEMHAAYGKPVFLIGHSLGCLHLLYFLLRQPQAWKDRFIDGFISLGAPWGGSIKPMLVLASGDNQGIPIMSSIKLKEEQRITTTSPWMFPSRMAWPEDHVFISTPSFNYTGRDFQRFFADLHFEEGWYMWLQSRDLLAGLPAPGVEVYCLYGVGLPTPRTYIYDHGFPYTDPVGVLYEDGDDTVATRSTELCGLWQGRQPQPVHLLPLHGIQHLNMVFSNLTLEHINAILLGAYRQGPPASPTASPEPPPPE

O=C1Nc2[nH]nc(C3CCN(c4cnc(C(F)(F)F)cn4)CC3)c2C(O)(C(F)(F)F)C1O (single isomer, unassigned; (+)) [Example 1(4), (+)-4,5-Dihydroxy-4-(trifluoromethyl)-3-{1-[5-(trifluoromethyl)pyrazin-2-yl]piperidin-4-yl}-1,4,5,7-tetrahydro-6H-pyrazolo[3,4-b]pyridin-6-one]
EC50 (LCAT): 4 nM | Rate of increase in HDL level after administration of single dose (cynomolgus monkey): 590%

O=C1Nc2[nH]nc(C3CCN(c4cnc(C(F)(F)F)nc4)CC3)c2[C@@H](C(F)(F)F)[C@H]1O [Example 6(4), (+)-cis-5-Hydroxy-4-(trifluoromethyl)-3-{1-[2-(trifluoromethyl)pyrimidin-5-yl]piperidin-4-yl}-1,4,5,7-tetrahydro-6H-pyrazolo[3,4-b]pyridin-6-one]
EC50 (LCAT): 18 nM | Rate of increase in HDL level after administration of single dose (cynomolgus monkey): 483%
